Assay results as given in BindingDB's records for doi:10.1124/jpet.106.103382 (Wyeth Research, 2006).

Columns and labels:
Adenosine receptor A1 = molecular target: T1, Adenosine receptor A1 (Homo sapiens, UniProt P30542)
T1 sequence (P30542 whole entry): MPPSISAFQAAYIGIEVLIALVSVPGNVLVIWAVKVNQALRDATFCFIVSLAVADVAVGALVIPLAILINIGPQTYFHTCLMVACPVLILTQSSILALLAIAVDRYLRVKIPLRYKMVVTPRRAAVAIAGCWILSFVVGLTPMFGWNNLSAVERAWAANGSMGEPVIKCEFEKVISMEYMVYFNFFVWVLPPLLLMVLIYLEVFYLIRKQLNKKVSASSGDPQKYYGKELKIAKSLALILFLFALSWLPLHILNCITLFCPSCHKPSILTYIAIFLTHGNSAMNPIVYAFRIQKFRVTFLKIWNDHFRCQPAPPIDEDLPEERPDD

[1] = molecular target: T2, Muscarinic acetylcholine receptor M2 (Homo sapiens, UniProt P08172)
T2 sequence (P08172 whole entry): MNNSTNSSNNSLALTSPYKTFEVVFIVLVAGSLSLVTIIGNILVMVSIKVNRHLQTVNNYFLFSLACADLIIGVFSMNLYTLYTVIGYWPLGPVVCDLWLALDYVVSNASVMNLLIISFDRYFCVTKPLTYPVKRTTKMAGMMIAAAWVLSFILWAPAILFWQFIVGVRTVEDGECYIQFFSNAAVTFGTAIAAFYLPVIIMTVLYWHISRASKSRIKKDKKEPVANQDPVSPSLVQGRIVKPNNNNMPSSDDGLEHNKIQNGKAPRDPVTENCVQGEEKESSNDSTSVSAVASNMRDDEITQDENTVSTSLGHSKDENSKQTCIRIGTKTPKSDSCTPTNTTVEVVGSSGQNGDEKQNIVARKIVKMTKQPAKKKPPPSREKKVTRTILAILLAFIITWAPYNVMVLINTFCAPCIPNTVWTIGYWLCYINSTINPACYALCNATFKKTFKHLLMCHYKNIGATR

[2] = molecular target: T3, Muscarinic acetylcholine receptor M1 (Homo sapiens, UniProt P11229)
T3 sequence (P11229 whole entry): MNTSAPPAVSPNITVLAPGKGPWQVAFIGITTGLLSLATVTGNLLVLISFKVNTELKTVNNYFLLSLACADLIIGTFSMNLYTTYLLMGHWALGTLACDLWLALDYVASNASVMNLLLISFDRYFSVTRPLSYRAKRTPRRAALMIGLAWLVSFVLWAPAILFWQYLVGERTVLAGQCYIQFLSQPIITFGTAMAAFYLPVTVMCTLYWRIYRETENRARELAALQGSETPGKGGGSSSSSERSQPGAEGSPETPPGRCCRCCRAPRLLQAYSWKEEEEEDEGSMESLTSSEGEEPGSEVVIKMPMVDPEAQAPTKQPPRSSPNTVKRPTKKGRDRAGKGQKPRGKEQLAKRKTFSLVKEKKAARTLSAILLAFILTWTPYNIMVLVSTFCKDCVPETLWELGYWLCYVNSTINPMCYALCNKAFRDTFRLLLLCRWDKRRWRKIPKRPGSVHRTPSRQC

Cannabinoid receptor 1 = Cannabinoid receptor 1 (Homo sapiens, UniProt P21554)
Sequence of Cannabinoid receptor 1 (P21554 whole entry): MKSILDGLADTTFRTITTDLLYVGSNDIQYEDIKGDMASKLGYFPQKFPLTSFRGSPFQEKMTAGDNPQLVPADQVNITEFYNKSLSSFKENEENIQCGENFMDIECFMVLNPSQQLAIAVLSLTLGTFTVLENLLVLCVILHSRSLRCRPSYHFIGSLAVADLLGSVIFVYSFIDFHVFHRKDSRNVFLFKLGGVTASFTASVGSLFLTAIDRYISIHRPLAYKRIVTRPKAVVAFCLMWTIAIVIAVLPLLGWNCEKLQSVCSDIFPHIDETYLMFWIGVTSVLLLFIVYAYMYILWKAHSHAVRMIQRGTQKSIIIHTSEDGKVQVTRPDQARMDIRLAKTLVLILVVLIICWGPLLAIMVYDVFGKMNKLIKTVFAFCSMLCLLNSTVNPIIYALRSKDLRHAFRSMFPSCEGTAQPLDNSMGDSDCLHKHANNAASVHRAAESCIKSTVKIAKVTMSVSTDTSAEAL

[3] = molecular target: D(3) dopamine receptor (Homo sapiens) (UniProt P35462)
Sequence of D(3) dopamine receptor (Homo sapiens) (P35462 whole entry, looked up): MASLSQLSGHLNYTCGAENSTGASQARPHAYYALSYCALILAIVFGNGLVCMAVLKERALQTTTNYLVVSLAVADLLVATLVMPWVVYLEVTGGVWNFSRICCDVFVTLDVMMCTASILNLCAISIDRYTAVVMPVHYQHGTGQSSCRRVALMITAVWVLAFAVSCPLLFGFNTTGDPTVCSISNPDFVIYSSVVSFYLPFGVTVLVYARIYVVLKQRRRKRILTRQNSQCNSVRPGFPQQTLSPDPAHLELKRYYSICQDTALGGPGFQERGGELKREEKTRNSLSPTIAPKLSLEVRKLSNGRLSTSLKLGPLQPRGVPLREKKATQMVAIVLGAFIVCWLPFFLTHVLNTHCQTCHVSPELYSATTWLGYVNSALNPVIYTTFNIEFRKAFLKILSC

[4] = molecular target: Histamine H2 receptor (Homo sapiens) (UniProt P25021)
Sequence of Histamine H2 receptor (Homo sapiens) (P25021 whole entry, looked up): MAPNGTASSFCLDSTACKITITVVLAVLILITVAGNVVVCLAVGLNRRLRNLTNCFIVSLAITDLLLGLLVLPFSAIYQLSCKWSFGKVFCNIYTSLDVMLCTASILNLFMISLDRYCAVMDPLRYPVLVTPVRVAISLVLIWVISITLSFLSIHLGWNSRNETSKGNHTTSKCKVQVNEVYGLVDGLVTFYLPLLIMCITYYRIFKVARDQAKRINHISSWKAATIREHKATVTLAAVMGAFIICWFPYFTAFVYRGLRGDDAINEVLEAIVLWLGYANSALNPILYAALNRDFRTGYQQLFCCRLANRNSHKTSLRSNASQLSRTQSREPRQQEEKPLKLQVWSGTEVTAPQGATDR

Cannabinoid receptor 2 = Cannabinoid receptor 2 (Homo sapiens, UniProt P34972)
Sequence of Cannabinoid receptor 2 (P34972 whole entry): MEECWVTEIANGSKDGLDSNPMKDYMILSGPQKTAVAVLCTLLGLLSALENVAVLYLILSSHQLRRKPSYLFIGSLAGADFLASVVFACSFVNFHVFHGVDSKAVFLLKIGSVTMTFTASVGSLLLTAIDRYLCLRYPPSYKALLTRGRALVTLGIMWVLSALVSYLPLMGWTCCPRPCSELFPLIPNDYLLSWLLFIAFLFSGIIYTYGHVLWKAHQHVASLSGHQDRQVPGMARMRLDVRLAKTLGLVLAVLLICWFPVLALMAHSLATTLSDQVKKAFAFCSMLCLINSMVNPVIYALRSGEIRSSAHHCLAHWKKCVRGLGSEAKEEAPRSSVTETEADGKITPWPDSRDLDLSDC

[5] = molecular target: Muscarinic acetylcholine receptor M3 (Homo sapiens, UniProt P20309)
Sequence of Muscarinic acetylcholine receptor M3 (P20309 whole entry): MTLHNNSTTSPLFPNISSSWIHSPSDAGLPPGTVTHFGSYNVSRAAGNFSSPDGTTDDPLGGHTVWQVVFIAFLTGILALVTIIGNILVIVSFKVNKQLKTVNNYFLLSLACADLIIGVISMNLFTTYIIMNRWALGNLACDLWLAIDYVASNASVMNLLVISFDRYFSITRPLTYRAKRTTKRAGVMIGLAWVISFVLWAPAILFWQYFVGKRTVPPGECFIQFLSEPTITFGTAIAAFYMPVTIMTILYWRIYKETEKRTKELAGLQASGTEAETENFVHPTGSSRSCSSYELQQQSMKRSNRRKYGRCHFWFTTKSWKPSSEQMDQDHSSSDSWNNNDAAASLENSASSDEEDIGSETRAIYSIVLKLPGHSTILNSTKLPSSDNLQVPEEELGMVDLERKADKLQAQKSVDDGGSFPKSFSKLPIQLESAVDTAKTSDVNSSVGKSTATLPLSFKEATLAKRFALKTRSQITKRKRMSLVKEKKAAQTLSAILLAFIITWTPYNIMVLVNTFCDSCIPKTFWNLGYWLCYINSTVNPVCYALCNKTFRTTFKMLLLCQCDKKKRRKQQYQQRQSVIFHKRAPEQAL

[6] = molecular target: T4, Muscarinic acetylcholine receptor M5 (Homo sapiens, UniProt P08912)
T4 sequence (P08912 whole entry): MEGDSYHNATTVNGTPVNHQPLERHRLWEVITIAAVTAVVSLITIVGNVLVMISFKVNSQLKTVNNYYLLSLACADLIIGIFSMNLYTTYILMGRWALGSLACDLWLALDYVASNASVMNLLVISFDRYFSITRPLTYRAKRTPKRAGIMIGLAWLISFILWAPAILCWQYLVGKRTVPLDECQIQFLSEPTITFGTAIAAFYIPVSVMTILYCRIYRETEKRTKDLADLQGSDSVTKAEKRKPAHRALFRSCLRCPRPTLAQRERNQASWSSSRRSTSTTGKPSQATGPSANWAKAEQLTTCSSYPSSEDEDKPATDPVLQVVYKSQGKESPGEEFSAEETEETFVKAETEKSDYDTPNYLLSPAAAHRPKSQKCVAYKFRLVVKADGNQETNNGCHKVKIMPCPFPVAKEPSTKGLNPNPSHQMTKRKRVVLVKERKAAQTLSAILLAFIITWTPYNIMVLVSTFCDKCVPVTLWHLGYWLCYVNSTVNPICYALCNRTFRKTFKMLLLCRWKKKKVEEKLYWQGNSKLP

Adenosine receptor A2b = molecular target: T5, Adenosine receptor A2b (Bos taurus, UniProt Q1LZD0)
T5 sequence (Q1LZD0 whole entry): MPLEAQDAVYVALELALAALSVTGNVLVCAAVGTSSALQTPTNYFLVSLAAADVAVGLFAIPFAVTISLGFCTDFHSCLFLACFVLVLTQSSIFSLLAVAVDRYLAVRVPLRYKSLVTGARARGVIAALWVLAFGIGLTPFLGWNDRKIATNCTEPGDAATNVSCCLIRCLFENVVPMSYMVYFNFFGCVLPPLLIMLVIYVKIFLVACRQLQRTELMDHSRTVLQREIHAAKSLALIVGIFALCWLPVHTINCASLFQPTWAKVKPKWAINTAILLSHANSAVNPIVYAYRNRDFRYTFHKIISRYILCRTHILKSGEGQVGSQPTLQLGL

Transporter = Transporter (Cavia porcellus, UniProt H0WCX4)
Sequence of Transporter (H0WCX4 whole entry): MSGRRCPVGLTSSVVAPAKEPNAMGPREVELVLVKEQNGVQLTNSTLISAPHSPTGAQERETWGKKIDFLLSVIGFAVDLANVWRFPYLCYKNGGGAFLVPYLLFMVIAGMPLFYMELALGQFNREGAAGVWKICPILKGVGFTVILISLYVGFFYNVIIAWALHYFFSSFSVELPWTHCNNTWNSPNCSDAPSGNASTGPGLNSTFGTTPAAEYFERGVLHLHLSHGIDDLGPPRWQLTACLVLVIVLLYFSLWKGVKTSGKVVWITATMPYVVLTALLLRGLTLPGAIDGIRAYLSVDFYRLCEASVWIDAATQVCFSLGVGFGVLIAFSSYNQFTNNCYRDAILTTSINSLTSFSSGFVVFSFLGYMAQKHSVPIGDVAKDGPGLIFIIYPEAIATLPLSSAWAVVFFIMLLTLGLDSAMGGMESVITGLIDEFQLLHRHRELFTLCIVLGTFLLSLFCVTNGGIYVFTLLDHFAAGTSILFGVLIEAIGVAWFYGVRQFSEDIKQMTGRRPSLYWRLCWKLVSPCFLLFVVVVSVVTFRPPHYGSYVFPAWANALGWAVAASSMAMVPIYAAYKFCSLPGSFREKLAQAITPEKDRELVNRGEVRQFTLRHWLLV

[7] = molecular target: T6, Muscarinic acetylcholine receptor M4 (Homo sapiens, UniProt P08173)
T6 sequence (P08173 whole entry): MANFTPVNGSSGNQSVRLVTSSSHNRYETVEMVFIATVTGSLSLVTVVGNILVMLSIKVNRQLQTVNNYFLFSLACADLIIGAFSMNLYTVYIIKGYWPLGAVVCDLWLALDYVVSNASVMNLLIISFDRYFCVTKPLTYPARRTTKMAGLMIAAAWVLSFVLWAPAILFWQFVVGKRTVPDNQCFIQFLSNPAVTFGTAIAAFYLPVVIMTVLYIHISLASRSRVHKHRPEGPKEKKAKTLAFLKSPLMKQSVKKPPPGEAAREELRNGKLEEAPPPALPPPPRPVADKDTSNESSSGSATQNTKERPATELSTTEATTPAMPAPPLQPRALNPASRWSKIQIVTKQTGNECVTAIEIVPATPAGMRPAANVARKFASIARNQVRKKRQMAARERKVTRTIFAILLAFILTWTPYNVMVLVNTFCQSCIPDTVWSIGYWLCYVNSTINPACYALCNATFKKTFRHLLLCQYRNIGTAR

D(1A) dopamine receptor = D(1A) dopamine receptor (Homo sapiens, UniProt P21728)
Sequence of D(1A) dopamine receptor (P21728 whole entry): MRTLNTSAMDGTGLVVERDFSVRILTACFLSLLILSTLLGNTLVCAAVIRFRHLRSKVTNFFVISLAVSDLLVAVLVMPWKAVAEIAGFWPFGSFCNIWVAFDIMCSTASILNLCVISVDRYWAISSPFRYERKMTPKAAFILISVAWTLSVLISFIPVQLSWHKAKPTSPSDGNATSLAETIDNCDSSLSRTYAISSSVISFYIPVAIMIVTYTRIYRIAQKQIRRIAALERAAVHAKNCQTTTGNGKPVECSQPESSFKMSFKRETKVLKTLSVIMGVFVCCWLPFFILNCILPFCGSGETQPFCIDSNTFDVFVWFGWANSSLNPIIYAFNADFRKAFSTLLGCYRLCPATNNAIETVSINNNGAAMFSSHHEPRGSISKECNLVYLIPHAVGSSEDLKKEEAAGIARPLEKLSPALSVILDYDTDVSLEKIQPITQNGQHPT

D(2) dopamine receptor = D(2) dopamine receptor (Homo sapiens, UniProt P14416)
Sequence of D(2) dopamine receptor (P14416 whole entry): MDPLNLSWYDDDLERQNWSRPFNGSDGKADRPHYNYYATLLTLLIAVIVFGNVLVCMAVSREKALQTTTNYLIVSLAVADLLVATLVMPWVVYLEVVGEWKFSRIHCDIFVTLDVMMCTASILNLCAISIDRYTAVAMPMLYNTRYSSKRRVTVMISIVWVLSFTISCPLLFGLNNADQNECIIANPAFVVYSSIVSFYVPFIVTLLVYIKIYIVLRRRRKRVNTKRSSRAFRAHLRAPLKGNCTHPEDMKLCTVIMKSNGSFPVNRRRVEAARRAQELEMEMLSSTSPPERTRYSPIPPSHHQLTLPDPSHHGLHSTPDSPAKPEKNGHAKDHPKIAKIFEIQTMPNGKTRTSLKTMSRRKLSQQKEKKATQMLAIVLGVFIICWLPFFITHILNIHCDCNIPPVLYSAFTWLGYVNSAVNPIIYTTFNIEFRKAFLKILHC

[8] = molecular target: Histamine H3 receptor (Homo sapiens) (UniProt Q9Y5N1)
Sequence of Histamine H3 receptor (Homo sapiens) (Q9Y5N1 whole entry, looked up): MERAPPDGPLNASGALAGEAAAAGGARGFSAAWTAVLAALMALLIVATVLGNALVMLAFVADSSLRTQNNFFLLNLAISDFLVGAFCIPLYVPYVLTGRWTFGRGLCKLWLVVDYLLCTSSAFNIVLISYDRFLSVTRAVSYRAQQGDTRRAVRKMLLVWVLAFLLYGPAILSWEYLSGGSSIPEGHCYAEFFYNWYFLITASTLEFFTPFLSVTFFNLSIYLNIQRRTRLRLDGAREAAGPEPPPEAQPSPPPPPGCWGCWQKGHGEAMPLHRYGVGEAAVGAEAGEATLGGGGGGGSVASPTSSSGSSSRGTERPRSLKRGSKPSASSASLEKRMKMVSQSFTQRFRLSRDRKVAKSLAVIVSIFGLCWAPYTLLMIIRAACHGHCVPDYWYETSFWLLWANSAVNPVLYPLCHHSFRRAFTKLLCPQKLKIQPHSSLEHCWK

[9] = molecular target: Histamine H1 receptor (Homo sapiens) (UniProt P35367)
Sequence of Histamine H1 receptor (Homo sapiens) (P35367 whole entry, looked up): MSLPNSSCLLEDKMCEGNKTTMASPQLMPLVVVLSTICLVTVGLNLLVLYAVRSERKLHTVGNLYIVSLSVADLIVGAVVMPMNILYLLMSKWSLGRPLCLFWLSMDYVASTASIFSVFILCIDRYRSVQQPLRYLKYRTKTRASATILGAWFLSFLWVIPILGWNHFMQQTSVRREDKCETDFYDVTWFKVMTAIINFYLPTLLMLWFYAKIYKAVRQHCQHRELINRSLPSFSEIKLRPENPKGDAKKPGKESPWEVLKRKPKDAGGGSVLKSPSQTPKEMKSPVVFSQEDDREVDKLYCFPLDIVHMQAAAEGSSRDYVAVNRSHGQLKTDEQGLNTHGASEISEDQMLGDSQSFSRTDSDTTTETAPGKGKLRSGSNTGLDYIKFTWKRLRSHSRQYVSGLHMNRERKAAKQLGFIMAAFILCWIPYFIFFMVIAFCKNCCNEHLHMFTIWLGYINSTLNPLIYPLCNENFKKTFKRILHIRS

Measured: IC50

CN(C)CC(c1ccc(O)cc1)C1(O)CCCCC1 (stereo unspecified) [CAS_386750-22-7]
> 10 µM: all assays above
